Legend:
Assay type in all cases: physicochemical
[1] = 7-day stability assessment of amorphous inupadenant hydrochloride
Protocol: A 7-day stability assessment of amorphous inupadenant hydrochloride was carried out as follows: (1) 20 mg amorphous inupadenant was added to 3×2 mL glass vials; (2) the samples were then stored under the following conditions—(i) 40° C./75% RH—open vial, (ii) 80° C.—closed vial, and (iii) ambient light—open vial; (3) Solids were stored for 1 week under the above conditions with XRPD analysis (Example 1, XRPD Method A) and HPLC purity analysis (Example 1, HPLC Method A) being carried out post-storage.

[2] = Salt disproportionation study in unbuffered water; conditions: ambient temperature, 24 hours
[3] = 7-day stability assessment of Form 2 inupadenant hydrochloride
[4] = Solubility assessment in solvents; conditions: 1,4-dioxane, water, tert-butyl alcohol, THF, ethyl acetate, acetone, methanol, DCM; even at 20 mg/mL with gentle heating
Protocol: 0.5-1 mL of solvent was added to each vial and the samples were manually shaken at ambient temperature. […] The solvents assessed in this solubility study were 1,4-dioxane, water, tert-butyl alcohol, THF, ethyl acetate, acetone, methanol, and DCM.

[5] = Dissolution rate assessment in pH 1.2, 0.2 M HCl/KCl buffer; conditions: for Conc. mg/mL in pH 1.2 HCl/KCl: ca. 37° C.
Protocol: 1000 μL of each sample was drawn from the slurry layer by automated pipette at 15, 30, 60, 120, 240 and 1440 minute timepoints. • These aliquots were spun down through a centrifuge filter, diluted 300 μl:300 μl with the method specified diluent and placed in total recovery vials. The solids were retained for XRPD analysis. • The solubility of the material in the buffer was determined by HPLC analysis (duplicate injections) (Example 1, HPLC Method C) against verified reference solutions of the source material at known concentrations.

[6] = Dynamic vapor sorption (DVS)
Protocol: 10-20 mg of sample was placed into a mesh vapor sorption balance pan and loaded into a DVS Intrinsic or Advantage dynamic vapor sorption balance by Surface Measurement Systems. The sample was subjected to a ramping profile from 40-90% relative humidity (RH) at 10% increments, maintaining the sample at each step until a stable weight had been achieved (dm/dt 0.004%, minimum step length 30 minutes, maximum step length 500 minutes) at 25° C. After completion of the sorption cycle, the sample was dried using the same procedure to 0% RH and then a second sorption cycle back to 40% RH. Two cycles were performed. The weight change during the sorption/desorption cycles were plotted, allowing for the hygroscopic nature of the sample to be determined. XRPD analysis (XRPD Method A) was then carried out on any solid retained.
DVS isotherms were collected using a Surface Measurement Systems Ltd. DVS-1 No Video, equipment #2126. The sample was loaded into balance pan, typically 10-30 mg, and equilibrated at 0% RH. After the material has dried the RH was increased with 10% per step for 1 hour per increment, ending at 95% RH. After completion of the sorption cycle, the sample was dried using the same method. The software used for data collection is DVSWin v3.01 No Video. Data analysis was performed using DVS Standard Analysis Suite v6.3.0 (Standard). […]

[7] = 7 days, 40° C. + 75% RH, open vial
[8] = 7 days, ambient light, open vial

C[S@+]([O-])CCOc1cc(N2CCN(CCn3c(=O)sc4c3nc(N)n3nc(-c5ccco5)nc43)CC2)c(F)cc1F.Cl [amorphous inupadenant hydrochloride]
HPLC (Purity, % area) [1, 7]: 99.64 % area
XRPD Analysis [1, 7]: Form 2 inupadenant
HPLC (Purity, % area) ([1]; 7 days, 80° C., closed vial): 99.66 % area
XRPD Analysis ([1]; 7 days, 80° C., closed vial): Form 2 inupadenant
HPLC (Purity, % area) [1, 8]: 99.66 % area
XRPD Analysis [1, 8]: Form 2 inupadenant
change of solid form (XRPD) after 7-day stability assessment ([1]; all stability conditions): crystallized into Form 2 inupadenant hydrochloride
HPLC (Purity, % area) ([1]; input material): 99.61 % area
XRPD Analysis ([1]; input material): Predominantly amorphous

C[S@+]([O-])CCOc1cc(N2CCN(CCn3c(=O)sc4c3nc(N)n3nc(-c5ccco5)nc43)CC2)c(F)cc1F.Cl.O [Form 2 inupadenant hydrochloride]
solid form (XRPD) after slurrying in water [2]: no changes in the solid form
HPLC (Purity, % area) [3, 7]: 99.64 % area
XRPD Analysis [3, 7]: Form 2 inupadenant
HPLC (Purity, % area) ([3]; 7 days, 80° C., closed vial): 99.66 % area
XRPD Analysis ([3]; 7 days, 80° C., closed vial): Form 2 inupadenant
HPLC (Purity, % area) [3, 8]: 99.66 % area
XRPD Analysis [3, 8]: Form 2 inupadenant
change of solid form (XRPD) after 7-day stability assessment ([3]; all stability conditions): no changes to the solid form
change of solid purity (HPLC) after 7-day stability assessment ([3]; all stability conditions): no changes to solid purity
HPLC (Purity, % area) ([3]; input material): 99.61 % area
XRPD Analysis ([3]; input material): Form 2 inupadenant
solubility in solvent systems [4]: insoluble
solubility in pH 1.2 0.2 M HCl/KCl buffer ([5]; 37° C., overnight): low
Conc. mg/mL in pH 1.2 HCl/KCl ([5]; 15 min): 0.0010 mg/mL
Conc. mg/mL in pH 1.2 HCl/KCl ([5]; 30 min): 0.0013 mg/mL
Conc. mg/mL in pH 1.2 HCl/KCl ([5]; 60 min): 0.0014 mg/mL
Conc. mg/mL in pH 1.2 HCl/KCl ([5]; 120 min): 0.0023 mg/mL
Conc. mg/mL in pH 1.2 HCl/KCl ([5]; 240 min): 0.0029 mg/mL
Conc. mg/mL in pH 1.2 HCl/KCl ([5]; 1440 min): 0.0035 mg/mL
XRPD of solids recovered from each timepoint ([5]; pH 1.2 HCl/KCl buffer): consistent with Form 2 inupadenant hydrochloride
change of solid purity (HPLC) after 7-day stability assessment ([1]; all stability conditions): no changes to solid purity
DVS total mass increase ([6]; at 90% RH, 25° C., DVS Method A): 3.8 wt. %

C[S@+]([O-])CCOc1cc(N2CCN(CCn3c(=O)sc4c3nc(N)n3nc(-c5ccco5)nc43)CC2)c(F)cc1F.Cl [Form 1 inupadenant hydrochloride]
DVS total mass uptake ([6]; at 95% RH, DVS Method B): 5 wt. %
